Results from patent publication US8822413B2, “Bifunctional hormone having alpha-MSH activity and natriuretic peptide activity and uses thereof” (Theratechnologies Inc., priority 2007, dated 2014).
Bridge positions count the residues as written; N and C are the ends. Square brackets hold non-standard residues; d marks the D form. Peptide text beside a SMILES is read from it.

Assays:
Sprague-Dawley (SD) rats [1] = experiment: Effect on mean arterial pressure (MAP) of anesthetized rat, iv bolus and iv infusion; format: in vivo
Sprague-Dawley (SD) rats [2] = experiment: Effect on angiotensin II-induced hypertension in SD rat; format: in vivo; settings: Ang II infusion, FIG. 2
Description: BNP (Natrecor®) was approved by the FDA for lowering blood pressure in hypertensive crisis. Its natural homolog, ANP, was also shown to rapidly reduce blood pressure and is useful as a therapeutic in hypertensive crisis. Activation of renin-angiotensin system is implicated in several medical indications involving hypertension. Therefore, a rat model in which blood pressure was raised with the continuous infusion of angiotensin II was used, and the potency/efficacy of native ANP (peptide #2 in the figures) and the bifunctional hormone of SEQ ID NO: 33 (peptide #33 in the figures) to reduce blood pressure was tested following intravenous bolus injections of the peptides in SD rats.
Animals. Sprague-Dawley (SD) rats (male, weighing from 300 to 330 g) were obtained from Charles River Inc. Animals were maintained on standard laboratory chow under a 12:12 light:dark cycle.
Surgical preparation. The rats were anesthetized with isoflurane 2.5% for the duration of the experiment. Animals were placed under radiant warmer to keep the temperature at 37.5° C. The carotid artery was catheterized (Polyethylene™ Tubing PE90) for continuous arterial blood pressure recording with a pressure transducer (Statham) connected to a multichannel recorder (TA240 Gould). […] During this period, the stability of blood pressure was assessed. […]

Sprague-Dawley (SD) rats [3] = experiment: Post-injury (therapeutic) treatment, acute kidney dysfunction following renal ischemia; format: in vivo, rat; settings: 15 μg/kg/h for 2 h after clamp removal, FIG. 4
Description: Peptides #2 and #33 were infused for 2 h after the removal of the renal clamps in the rat model of renal ischemia. Blood samples were collected at the indicated times and plasma creatinine and urea were determined. Data were analyzed by two way ANOVA using Bonferroni test for significance against the saline-treated group (n=3 per group; sal n=6);
Surgical preparation. The rats were anesthetized with Isoflurane 2.5% for the duration of the experiment. Animals were placed under radiant warmer to keep the temperature at 37.5° C. A blood sample (0.5 ml) was collected via tail vein artery before the renal artery clamping. Once the animal was anesthetized, placed in a supine position, a 1.5 cm flank incision was made on the right side of the abdominal wall. The right kidney was then exposed and the ureter, renal artery and renal vein were carefully dissected and ligated. The kidney was removed after cutting renal pedicle. A same incision was made on the left side of the abdominal wall. The left kidney is exposed and the renal vascular pedicle is carefully dissected. The renal vascular pedicle was then occluded by placing a vascular clip (Micro Serrefine™, Fine Science Tools) for a period of 30 or 45 minutes. This renal vascular pedicle clamping produced an acute renal artery occlusion (RAO). The kidney was inspected for ischemia as well as for good reperfusion after removing vascular clip for 2 minutes. The wound of abdominal wall was closed in two layers. The muscular layer was closed with a running 3-0 silk suture and the skin was closed with suture clips (Fine Science Tools). 21 hours after right nephrectomy and left renal artery clipping procedure, the rats were put in the metabolic cages for urine collection (in pre-weighed Tube 50 ml) for 3 hours. Urine volume was measured by weighing the tube containing urine. Then, the animals were anesthetized with Isoflurane 2.5%. Left kidney was removed and kept in formalin for future histology. Blood was collected by cardiac puncture into a heparinized syringe (3 ml) and immediately transferred into appropriately labeled tubes that contain heparin as the anticoagulant. Following collection, all blood samples were kept on ice and centrifuged for 2 min at 13000 rpm. Plasma and urine aliquots (400 μl) were removed and stored at −80° C.
Preparation of dosing solutions. Peptides (#2 and #33) were also made up fresh daily in a 0.1% HSA saline solution (33 μl of 30% HSA in […] saline) at concentration of 100 μg/100 μl. […]
In order to verify if short infusions of the peptides post-injury (therapeutic treatment) would be beneficial to reduce kidney injury, peptides #2 or #33 were infused at 15 μg/kg/h for 2 h after renal artery clamp removal. Plasma creatinine and urea were determined at different times. […]

[4] = later time points 21 h and 27 h

`CC[C@H](C)[C@@H]1NC(=O)[C@H](CCCNC(=N)N)NC(=O)[C@H](CC(=O)O)NC(=O)[C@H](CCSC)NC(=O)[C@H](CCCNC(=N)N)NC(=O)CNC(=O)CNC(=O)[C@H](Cc2ccccc2)NC(=O)[C@@H](NC(=O)[C@H](CCSC)NC(=O)[C@@H]2CCCN2C(=O)[C@H](CCCCN)NC(=O)CNC(=O)[C@H](Cc2c[nH]c3ccccc23)NC(=O)[C@H](CCCNC(=N)N)NC(=O)[C@@H](Cc2ccccc2)NC(=O)[C@H](Cc2c[nH]cn2)NC(C)=O)CSSC[C@@H](C(=O)N[C@@H](CC(N)=O)C(=O)N[C@@H](CO)C(=O)N[C@@H](Cc2ccccc2)C(=O)N[C@@H](CCCNC(=N)N)C(=O)N[C@@H](Cc2ccc(O)cc2)C(N)=O)NC(=O)CNC(=O)[C@H](CC(C)C)NC(=O)CNC(=O)[C@H](CO)NC(=O)[C@H](CCC(N)=O)NC(=O)[C@H](C)NC(=O)CNC1=O` [SEQ ID NO: 33, Ac-H-f-R-W-G-K-P-M-[C-F-G-G-R-M-D-R-I-G-A-Q-S-G-L-G-C]-N-S-F-R-Y-NH2] (Ac-H[dF]RWGKPMCFGGRMDRIGAQSGLGCNSFRY-NH2; disulfide 9-25) was tested, and the “effect on MAP of continuous intravenous infusion” value (Sprague-Dawley (SD) rats [1]; 30 μg/kg/h iv infusion, MAP recorded over an hour, FIG. 1B) was “well tolerated”, the “bolus iv dose tolerated (MAP)” value (Sprague-Dawley (SD) rats [1]; anesthetized SD rat, incremental iv bolus doses, FIG. 1A) was “up to 20 μg/kg” and the “effect on blood pressure raised by angiotensin II” value (Sprague-Dawley (SD) rats [2]; iv bolus doses of 400 μg/kg and above) was “effect similar to that of ANP”. The “effect on blood pressure raised by angiotensin II” value (Sprague-Dawley (SD) rats [2]; iv bolus doses of up to 300 μg/kg) was “did not induced hypotension”, the BUN (Sprague-Dawley (SD) rats [3]; at 4 h) was “prevented the rise” and the plasma creatinine (Sprague-Dawley (SD) rats [3]; at 4 h) was “prevented the rise”. The “reducing BUN levels, compared with native ANP” value (Sprague-Dawley (SD) rats [3]; [4]) was “more effective than native ANP” and the “reducing creatinine levels, compared with native ANP” value (Sprague-Dawley (SD) rats [3]; [4]) was “more effective than native ANP”.
